Experimental data published in patent US5246989A, “Photochromic compound, composition and use thereof” (priority 1990, dated 1993).
Each block holds one compound with its values, some of them ahead of it.

Test: Photochromic characteristics of cast polymethyl methacrylate film (coloration under mercury lamp, fading)
Format: physicochemical
Conditions: PMMA film, 1.0×10^-4 mol/g, 0.1 mm, 35° C.; for t1/2 (half-value period of absorbance after irradiation): after 60 seconds' irradiation; for λ max (maximum absorption wavelength of the colored film) / ε (60 seconds)-ε (0 second): mercury lamp 60 seconds; for ε (60 seconds)-ε (0 second): absorbance at λmax
Protocol: The compound synthesized in Example 1, which was represented by the following formula: [drawing 286] was dissolved and dispersed in polymethyl methacrylate with the aid of benzene, and a cast film was prepared on a slide glass sheet (11.2 cm×3.7 cm) so that the concentration of the compound in the film was 1.0×10^-4 mol/g and the thickness of the film was 0.1 mm. The photochromic film was irradiated with rays of a mercury lamp (SHL-100 supplied by Toshiba) located 10 cm apart from the film at 35° C.+1° C. for 60 seconds to effect coloration in the film, and the photochromic characteristics were examined with respect to items described below.
Maximum absorption wavelength (λmax):
The maximum absorption wavelength λmax of the colored film was determined by using a spectrophotometer (220 A supplied by Hitachi).
After 60 seconds' irradiation under the above-mentioned conditions, the absorbance at the maximum absorption wavelength was measured.
The absorbance at the maximum absorption wavelength of the unirradiated film was measured. Half-value period t^1/2 :
After 60 seconds' irradiation, the time required for reduction of the absorbance of the film to 1/2 of [ε(60 seconds)-ε(0 second)] was measured.

Structure (SMILES): COC(=O)c1cc2c(c3cc[nH]c13)OC1(C=N2)N(C)c2[nH]ccc2C12CCCCC2 (centres unmarked) [Compound 20]
t1/2 (half-value period of absorbance after irradiation): 17 s | λ max (maximum absorption wavelength of the colored film): 603 | ε (60 seconds)-ε (0 second): 1.4

Structure (SMILES): CN1c2cc(N3CCCC3)ccc2C(C)(C)C12C=Nc1c(C(F)(F)F)cc3ncccc3c1O2 (centres unmarked) [Compound 49]
t1/2 (half-value period of absorbance after irradiation): 19 s | λ max (maximum absorption wavelength of the colored film): 600 | ε (60 seconds)-ε (0 second): 1.5

Structure (SMILES): COC(=O)CN1c2cc3ccc([N+](=O)[O-])cc3cc2C2(CC3CCC2C3)C12C=Nc1c(C(F)(F)F)cc3ncccc3c1O2 (centres unmarked) [Compound 14]
t1/2 (half-value period of absorbance after irradiation): 16 s | λ max (maximum absorption wavelength of the colored film): 606 | ε (60 seconds)-ε (0 second): 1.4

Structure (SMILES): Cc1cc2ccncc2c2c1N=CC1(O2)N(C(C)C)c2ccc(Cl)cc2C12CCCC2 (centres unmarked) [Compound 28]
t1/2 (half-value period of absorbance after irradiation): 14 s | λ max (maximum absorption wavelength of the colored film): 595 | ε (60 seconds)-ε (0 second): 1.7

Structure (SMILES): CC1(C)c2cc3cc(-c4ccsc4)oc3cc2N(CCC#N)C12C=Nc1c(N)cc3ncccc3c1O2 (centres unmarked) [Compound 50]
λ max (maximum absorption wavelength of the colored film): 605 | ε (60 seconds)-ε (0 second): 1.5

Structure (SMILES): CN1c2c(F)cc(F)cc2C2(CCCCC2)C12C=Nc1ccc3cnccc3c1O2 (centres unmarked) [Compound 27]
t1/2 (half-value period of absorbance after irradiation): 15 s | λ max (maximum absorption wavelength of the colored film): 613 | ε (60 seconds)-ε (0 second): 1.7

Structure (SMILES): CN1c2ccccc2C2(CCCCC2)C12C=Nc1ccc3cnccc3c1O2 (centres unmarked) [Compound 26]
t1/2 (half-value period of absorbance after irradiation): 17 s | λ max (maximum absorption wavelength of the colored film): 619 | ε (60 seconds)-ε (0 second): 1.8

Structure (SMILES): CCCCN1c2cc(CC)ccc2C2(CC3CCC2C3)C12C=Nc1c(N)cc3occc3c1O2 (centres unmarked) [Compound 23]
t1/2 (half-value period of absorbance after irradiation): 19 s | λ max (maximum absorption wavelength of the colored film): 605 | ε (60 seconds)-ε (0 second): 1.2

Structure (SMILES): CN1c2ccc([N+](=O)[O-])cc2C2(CCCCC2)C12C=Nc1ccc3ccccc3c1O2 (centres unmarked) [Compound 21]
t1/2 (half-value period of absorbance after irradiation): 18 s | λ max (maximum absorption wavelength of the colored film): 610 | ε (60 seconds)-ε (0 second): 1.2

Structure (SMILES): N#CCN1c2[nH]ccc2C2(CCCCCC2)C12C=Nc1cc(C#N)c3ccccc3c1O2 (centres unmarked) [Compound 17]
t1/2 (half-value period of absorbance after irradiation): 18 s | λ max (maximum absorption wavelength of the colored film): 606 | ε (60 seconds)-ε (0 second): 1.4

Structure (SMILES): COC(=O)c1cc2ncccc2c2c1N=CC1(O2)N(C)c2c(cc(C(F)(F)F)c(C(F)(F)F)c2C(F)(F)F)C1(C)C (centres unmarked) [Compound 51]
t1/2 (half-value period of absorbance after irradiation): 18 s | λ max (maximum absorption wavelength of the colored film): 609 | ε (60 seconds)-ε (0 second): 1.4

Structure (SMILES): CN1c2ccccc2C2(CC3CCC2C3)C12C=Nc1ccc3cccnc3c1O2 (centres unmarked) [Compound 2]
t1/2 (half-value period of absorbance after irradiation): 18 s | λ max (maximum absorption wavelength of the colored film): 603 | ε (60 seconds)-ε (0 second): 1.4

Structure (SMILES): COC(=O)c1ccc2c(c1)C(C)(C)C1(C=Nc3ccc4ncccc4c3O1)N2C (centres unmarked) [Compound 52]
t1/2 (half-value period of absorbance after irradiation): 18 s | λ max (maximum absorption wavelength of the colored film): 611 | ε (60 seconds)-ε (0 second): 1.5

Structure (SMILES): CN1c2ccc(Cl)cc2C2(C3CC4CC(C3)CC2C4)C12C=Nc1cc(N3CCCCC3)c3ncccc3c1O2 (centres unmarked) [Compound 9]
t1/2 (half-value period of absorbance after irradiation): 17 s | λ max (maximum absorption wavelength of the colored film): 605 | ε (60 seconds)-ε (0 second): 1.2

Structure (SMILES): COC(=O)CN1c2cc(Cl)ccc2C2(C3CC4CC(C3)CC2C4)C12C=Nc1ccc3cc4ccc(Br)cc4cc3c1O2 (centres unmarked) [Compound 24]
t1/2 (half-value period of absorbance after irradiation): 18 s | λ max (maximum absorption wavelength of the colored film): 609 | ε (60 seconds)-ε (0 second): 1.2

Structure (SMILES): Cc1cc2c(c3ccnc(C)c13)OC1(C=N2)N(C(C)C)c2cc(Br)ccc2C12CCCCCC2 (centres unmarked) [Compound 29]
t1/2 (half-value period of absorbance after irradiation): 16 s | λ max (maximum absorption wavelength of the colored film): 602 | ε (60 seconds)-ε (0 second): 1.6

Structure (SMILES): COc1ccc2c(c1)C1(CCCCC1)C1(C=Nc3ccc4cc5[nH]ccc5cc4c3O1)N2C (centres unmarked) [Compound 19]
t1/2 (half-value period of absorbance after irradiation): 17 s | λ max (maximum absorption wavelength of the colored film): 607 | ε (60 seconds)-ε (0 second): 1.2

The remaining lines, values ahead:

t1/2 (half-value period of absorbance after irradiation): 18 s | λ max (maximum absorption wavelength of the colored film): 589 | ε (60 seconds)-ε (0 second): 1.6
Structure (SMILES): CCC1(CC)c2cc(C(F)(F)F)ccc2N(Cc2ccccc2)C12C=Nc1cc(Cc3ccccc3)c3c(C)cncc3c1O2 (centres unmarked) [Compound 30]

t1/2 (half-value period of absorbance after irradiation): 14 s | λ max (maximum absorption wavelength of the colored film): 609 | ε (60 seconds)-ε (0 second): 1.5
Structure (SMILES): CN1c2c(F)cc(F)cc2C(C)(C)C12C=Nc1ccc3cnccc3c1O2 (centres unmarked) [Compound 54]

t1/2 (half-value period of absorbance after irradiation): 18 s | λ max (maximum absorption wavelength of the colored film): 601 | ε (60 seconds)-ε (0 second): 1.8
Structure (SMILES): N#Cc1cnc2ccc3c(c2c1)OC1(C=N3)N(CCc2ccccc2)c2ccccc2C12CCCCC2 (centres unmarked) [Compound 7]

t1/2 (half-value period of absorbance after irradiation): 17 s | λ max (maximum absorption wavelength of the colored film): 601 | ε (60 seconds)-ε (0 second): 1.4
Structure (SMILES): CN(C)c1cc2c(c3cc4cc[nH]c4cc13)OC1(C=N2)N(C)c2ncc(Cc3ccccc3)cc2C1(C)C (centres unmarked) [Compound 47]

t1/2 (half-value period of absorbance after irradiation): 18 s | λ max (maximum absorption wavelength of the colored film): 611 | ε (60 seconds)-ε (0 second): 1.4
Structure (SMILES): CN1c2ccccc2C2(CCCCC2)C12C=Nc1cc(Cc3ccccc3)c3ccccc3c1O2 (centres unmarked) [Compound 25]

t1/2 (half-value period of absorbance after irradiation): 18 s | λ max (maximum absorption wavelength of the colored film): 607 | ε (60 seconds)-ε (0 second): 1.4
Structure (SMILES): COC(=O)CCCCN1c2cc3[nH]ccc3cc2C2(CC3CCC2C3)C12C=Nc1cc(-c3ccccc3)c3ncccc3c1O2 (centres unmarked) [Compound 13]

t1/2 (half-value period of absorbance after irradiation): 18 s | λ max (maximum absorption wavelength of the colored film): 610 | ε (60 seconds)-ε (0 second): 1.4
Structure (SMILES): CN1c2occ(C#N)c2C(C)(C)C12C=Nc1cc(Cc3ccccc3)c3ncc(Br)cc3c1O2 (centres unmarked) [Compound 48]

t1/2 (half-value period of absorbance after irradiation): 18 s | λ max (maximum absorption wavelength of the colored film): 603 | ε (60 seconds)-ε (0 second): 1.4
Structure (SMILES): CN1c2cc3occc3cc2C2(CC3CCC2C3)C12C=Nc1ccc3ccccc3c1O2 (centres unmarked) [Compound 8]

t1/2 (half-value period of absorbance after irradiation): 18 s | λ max (maximum absorption wavelength of the colored film): 603 | ε (60 seconds)-ε (0 second): 1.3
Structure (SMILES): CN(C)c1cc2c(c3ccccc13)OC1(C=N2)N(C)c2ccccc2C12CC1CCC2C1 (centres unmarked) [Compound 3]

t1/2 (half-value period of absorbance after irradiation): 19 s | λ max (maximum absorption wavelength of the colored film): 590 | ε (60 seconds)-ε (0 second): 1.7
Structure (SMILES): CCC1(CC)c2ccc(N(C)C)cc2N(CCc2ccccc2)C12C=Nc1c(Cl)cc3cc(OC)ncc3c1O2 (centres unmarked) [Compound 32]

t1/2 (half-value period of absorbance after irradiation): 17 s | λ max (maximum absorption wavelength of the colored film): 606 | ε (60 seconds)-ε (0 second): 1.2
Structure (SMILES): COc1cc2c(c3ccccc13)OC1(C=N2)N(c2ccccc2)c2ccccc2C12CCCC2 (centres unmarked) [Compound 16]

t1/2 (half-value period of absorbance after irradiation): 13 s | λ max (maximum absorption wavelength of the colored film): 590 | ε (60 seconds)-ε (0 second): 1.6
Structure (SMILES): Cc1cc2ccncc2c2c1N=CC1(O2)N(C(C)C)c2ccc(Cl)cc2C1(C)C (centres unmarked) [Compound 55]

t1/2 (half-value period of absorbance after irradiation): 17 s | λ max (maximum absorption wavelength of the colored film): 607 | ε (60 seconds)-ε (0 second): 1.3
Structure (SMILES): COC(=O)CN1c2ccc(N(C)C)cc2C2(CCCCC2)C12C=Nc1cc(Br)c3ccccc3c1O2 (centres unmarked) [Compound 11]

t1/2 (half-value period of absorbance after irradiation): 18 s | λ max (maximum absorption wavelength of the colored film): 605 | ε (60 seconds)-ε (0 second): 1.4
Structure (SMILES): CCCN1c2ccc(C(F)(F)F)cc2C2(C3CC4CC(C3)CC2C4)C12C=Nc1ccc3ccccc3c1O2 (centres unmarked) [Compound 4]

t1/2 (half-value period of absorbance after irradiation): 17 s | λ max (maximum absorption wavelength of the colored film): 619 | ε (60 seconds)-ε (0 second): 1.7
Structure (SMILES): CCC1(C)c2cc(OC)ccc2N(Cc2ccccc2)C12C=Nc1cc(-c3ccccc3)c3c(OC)nccc3c1O2 (centres unmarked) [Compound 31]

t1/2 (half-value period of absorbance after irradiation): 16 s | λ max (maximum absorption wavelength of the colored film): 607 | ε (60 seconds)-ε (0 second): 1.3
Structure (SMILES): CN1c2cc3ncc(-c4ccsc4)cc3cc2C2(C3CC4CC(C3)CC2C4)C12C=Nc1ccc3ccccc3c1O2 (centres unmarked) [Compound 15]

t1/2 (half-value period of absorbance after irradiation): 16 s | λ max (maximum absorption wavelength of the colored film): 615 | ε (60 seconds)-ε (0 second): 1.7
Structure (SMILES): CN1c2ccccc2C(C)(C)C12C=Nc1ccc3cnccc3c1O2 (centres unmarked) [Compound 53]

t1/2 (half-value period of absorbance after irradiation): 16 s | λ max (maximum absorption wavelength of the colored film): 598 | ε (60 seconds)-ε (0 second): 1.7
Structure (SMILES): CCC1(CC)c2cc(O)cnc2N(C)C12C=Nc1ccc3ncccc3c1O2 (centres unmarked) [Compound 5]
